Test results from ChEMBL document CHEMBL2074562, “Substrate specificity of the rat liver Na(+)-bile salt cotransporter in Xenopus laevis oocytes and in CHO cells” (Am J Physiol, 1998).

How the values were obtained:
Assay type in all cases: functional, cell-based
Conditions in all cases: hamster
[1] = target: T1, Hepatic sodium/bile acid cotransporter (Rattus norvegicus, UniProt P26435); assay: TP_TRANSPORTER: inhibition of Taurocholate uptake (Taurocholate: 2.5 uM, Testosterone: 200 uM) in Ntcp-expressing CHO cells
T1 sequence (P26435 whole entry): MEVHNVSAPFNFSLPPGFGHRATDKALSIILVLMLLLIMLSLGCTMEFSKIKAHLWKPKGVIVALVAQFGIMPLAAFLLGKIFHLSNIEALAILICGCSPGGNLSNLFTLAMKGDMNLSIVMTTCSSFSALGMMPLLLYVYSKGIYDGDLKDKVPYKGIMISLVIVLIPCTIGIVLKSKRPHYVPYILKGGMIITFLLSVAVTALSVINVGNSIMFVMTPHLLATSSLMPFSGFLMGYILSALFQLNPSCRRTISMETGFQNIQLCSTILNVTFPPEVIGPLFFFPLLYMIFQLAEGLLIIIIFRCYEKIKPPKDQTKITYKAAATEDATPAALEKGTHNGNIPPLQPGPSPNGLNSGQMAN

[2] = target: T1, Hepatic sodium/bile acid cotransporter; assay: TP_TRANSPORTER: inhibition of Taurocholate uptake (Taurocholate: 2.5 uM, E1S: 200 uM) in Ntcp-expressing CHO cells
[3] = target: T1, Hepatic sodium/bile acid cotransporter; assay: TP_TRANSPORTER: inhibition of Taurocholate uptake (Taurocholate: 2.5 uM, Progesterone: 200 uM) in Ntcp-expressing CHO cells
[4] = target: T1, Hepatic sodium/bile acid cotransporter; assay: TP_TRANSPORTER: inhibition of Taurocholate uptake (Taurocholate: 2.5 uM, Estradiol-3-sulfate: 68 uM) in Ntcp-expressing CHO cells

## C[C@]12CC[C@H]3[C@@H](CCC4=CC(=O)CC[C@@]43C)[C@@H]1CC[C@@H]2O [TESTOSTERONE]
[1]
  Activity: inhibitor [(at a rough estmate) 50 % of control]

## C[C@]12CC[C@@H]3c4ccc(OS(=O)(=O)O)cc4CC[C@H]3[C@@H]1CCC2=O [ESTRONE SULFURIC ACID]
[2]
  Activity: inhibitor [(at a rough estmate) 30 % of control]

## CC(=O)[C@H]1CC[C@H]2[C@@H]3CCC4=CC(=O)CC[C@]4(C)[C@H]3CC[C@]12C [PROGESTERONE]
[3]
  Activity: inhibitor [(at a rough estmate) 70 % of control]

## C[C@]12CC[C@@H]3c4ccc(OS(=O)(=O)O)cc4CC[C@H]3[C@@H]1CC[C@@H]2O
[4]
  Activity: inhibitor [(at a rough estmate) 5 % of control]
